In publication PMC5725665, “Discovery of a Highly Selective Cell‐Active Inhibitor of the Histone Lysine Demethylases KDM2/7” (Angewandte Chemie (International Ed. in English), 2017):

These compounds were tested against T1, JMJD2A (KDM4A) (Homo sapiens, UniProt O75164) (assay: biochemical). Settings: read-out: KDM4A % Inhib. (18.75 uM).
T1 sequence (O75164 1-1064): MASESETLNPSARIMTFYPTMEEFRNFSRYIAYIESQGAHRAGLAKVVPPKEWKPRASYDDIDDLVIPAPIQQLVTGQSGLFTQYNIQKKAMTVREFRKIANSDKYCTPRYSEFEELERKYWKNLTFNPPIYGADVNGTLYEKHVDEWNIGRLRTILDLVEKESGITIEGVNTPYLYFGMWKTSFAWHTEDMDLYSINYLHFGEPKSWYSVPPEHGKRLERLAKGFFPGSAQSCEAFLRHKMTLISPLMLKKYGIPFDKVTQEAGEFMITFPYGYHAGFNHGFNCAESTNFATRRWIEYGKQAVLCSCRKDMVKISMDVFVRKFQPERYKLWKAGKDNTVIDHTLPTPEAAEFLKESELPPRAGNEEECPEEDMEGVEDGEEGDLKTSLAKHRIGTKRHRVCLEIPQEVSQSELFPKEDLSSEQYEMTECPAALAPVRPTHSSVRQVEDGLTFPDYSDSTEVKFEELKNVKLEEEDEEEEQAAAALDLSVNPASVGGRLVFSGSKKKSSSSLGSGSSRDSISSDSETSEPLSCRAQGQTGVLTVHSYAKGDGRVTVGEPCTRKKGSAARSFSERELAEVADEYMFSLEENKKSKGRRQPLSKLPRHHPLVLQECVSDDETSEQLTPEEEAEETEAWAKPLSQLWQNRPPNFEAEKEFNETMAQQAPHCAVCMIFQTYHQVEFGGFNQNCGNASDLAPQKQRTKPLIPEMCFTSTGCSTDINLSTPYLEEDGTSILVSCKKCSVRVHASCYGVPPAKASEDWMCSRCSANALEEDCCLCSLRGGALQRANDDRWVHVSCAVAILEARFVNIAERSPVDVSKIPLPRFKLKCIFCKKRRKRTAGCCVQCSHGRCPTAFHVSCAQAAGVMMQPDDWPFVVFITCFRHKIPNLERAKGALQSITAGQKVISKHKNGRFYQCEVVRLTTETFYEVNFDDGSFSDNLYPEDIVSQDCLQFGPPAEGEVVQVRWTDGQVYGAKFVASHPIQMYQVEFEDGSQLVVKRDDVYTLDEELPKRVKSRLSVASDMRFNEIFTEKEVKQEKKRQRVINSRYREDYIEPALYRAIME
Parameters: AlphaScreen histone demethylase activity assay

Going from `CC(=O)N1c2ccccc2C(C#N)(c2ccccc2)C1c1ccc(C#CCCCCCN2CCCC2)o1` (centres unmarked) [compound 133, 133] to `CC(=O)N1c2ccccc2C(C#N)(c2ccccc2)C1c1cc(C#CCCCCCN2CCCC2)co1` (centres unmarked) [compound 134, 134], the inhibition at 18.75 µM falls from 19.8% to 19.4%.

`CC(=O)N1c2ccccc2[C@](C#N)(c2ccccc2)[C@H]1c1cccc(/C=C/CCCCCN2CCCC2)c1` (racemic) [compound 9, 9] was tested, and the inhibition at 18.75 µM was 3.4%.

What follows are compounds tested against T2, KDM2A (Homo sapiens, UniProt Q9Y2K7) (assay: biochemical). Settings: inhibitor.
T2 construct: isolated enzyme
T2 sequence (Q9Y2K7 1-517 limits assumed): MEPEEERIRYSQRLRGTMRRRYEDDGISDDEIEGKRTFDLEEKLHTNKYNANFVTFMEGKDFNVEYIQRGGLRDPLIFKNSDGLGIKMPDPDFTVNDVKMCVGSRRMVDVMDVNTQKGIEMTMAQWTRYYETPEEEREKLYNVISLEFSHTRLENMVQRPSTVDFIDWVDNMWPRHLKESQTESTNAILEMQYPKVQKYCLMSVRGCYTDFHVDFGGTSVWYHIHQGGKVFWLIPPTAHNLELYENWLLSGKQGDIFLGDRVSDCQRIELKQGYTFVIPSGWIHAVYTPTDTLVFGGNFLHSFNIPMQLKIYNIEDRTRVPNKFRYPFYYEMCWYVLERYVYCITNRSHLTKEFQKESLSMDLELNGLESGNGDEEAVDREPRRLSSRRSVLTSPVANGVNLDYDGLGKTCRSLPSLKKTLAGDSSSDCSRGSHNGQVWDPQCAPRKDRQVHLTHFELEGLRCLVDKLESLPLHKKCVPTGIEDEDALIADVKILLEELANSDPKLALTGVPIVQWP
Parameters: RapidFire MS histone peptide demethylation assay
Method: [formula] Scheme 1 A) General synthetic strategy for racemic synthesis of KDM2A inhibitors. Reagents and conditions: i) Zn powder (10 equiv), NH4Cl (15 equiv), 5:1 acetone/H2O or H2, Pd/C (10 % w/w), EtOAc; ii) ArCHO (1.3 equiv), MgSO4 (5 equiv), PhMe or ArCHO (1.3 equiv), pyrrolidine (0.1 equiv), 3 Å sieves, CH2Cl2; iii) KO^tBu (1.1 equiv), PhMe, 0 °C; iv) R^3COCl (2–5 equiv), pyridine (2–5 equiv), CH2Cl2; v) metal‐catalysed cross‐coupling. B) Key structure–activity relationships. IC50 values were determined by RapidFire MS and confirmed by AlphaScreen. All compounds are racemic. C) Catalytic enantioselective synthesis. Reagents and conditions: i) CsOH⋅H2O (2.0 equiv), catalyst 14/16 (10 mol %), PhMe, −30 °C. Catalyst 14: 89 %, d.r. 10:1, e.r. 88:12; catalyst 16: 84 %, d.r. 7:1, e.r. 17:83; ii) CH3COCl (2.0 equiv), pyridine (2.0 equiv), CH2Cl2; iii) H2, Pd/C (10 % w/w), 88 % (2 steps); iv) K2CO3 (5 equiv), Br(CH2)7Br (4 equiv), acetone, reflux, 38 %; v) K2CO3 (5 equiv) pyrrolidine (4 equiv), CH3CN, 65 %; vi) PhN(SO2CF3)2 (1.1 equiv), DIPEA (2.0 equiv), CH2Cl2, 0 °C, 85 %; vii) 7‐pyrrolidine‐hept‐1‐yne (1.5 equiv), PdCl2(PPh3)2 (5 mol %), CuI (5 mol %), HN(^iPr)2, 75 °C, 79 %; viii) H2, Pd/C (10 % w/w), MeOH, 74 %. DIPEA=(^iPr)2NEt. A base‐mediated 5‐endo‐trig cyclization of a C‐2‐substituted aromatic imine afforded the racemic indoline core with two adjacent stereocenters. Subsequent acylation of the indoline ring system conferred stability towards oxidation and provided a handle for modulating polarity. Finally, metal‐catalysed cross‐coupling of the aryl bromide provided access to a variety of linkers between the indoline core and pyrrolidine capping group. In total, 45 racemic compounds were synthesized, and IC50 values for inhibition of KDM2A were determined using two orthogonal enzyme activity assays: AlphaScreen25 and RapidFire MS26 (see Section S3.1 in the Supporting Information for complete inhibition data). Key structure–activity relationships are summarized below (Scheme 1 B, compounds 2–12).

`CC(=O)N1c2ccccc2[C@@](C#N)(c2ccccc2)[C@@H]1c1cncc(OCCCCCCCN2CCCC2)c1` [(S,S)-3] and `N#CCC(=O)N1c2ccccc2[C@](C#N)(c2ccccc2)[C@H]1c1cncc(CCCCCCCN2CCCC2)c1` (relative stereo) [compound 139, 139] are within 0.2 log units of each other in “KDM2A RapidFire pIC50” value: 6.401 for the first, 6.368 for the second.

Compared with `N#C[C@]1(c2ccccc2)c2ccccc2N[C@@H]1c1cncc(C#CCCCCCN2CCCC2)c1` (relative stereo) [compound 137, 137], `N#C[C@]1(c2ccccc2)c2ccccc2N[C@@H]1c1cncc(CCCCCCCN2CCCC2)c1` (relative stereo) [compound 142, 142] is higher in “KDM2A RapidFire pIC50” value: 5.884 for the first, 6.708 for the second.

Same assay, conditions: read-out: KDM2A RapidFire pIC50 (converted)

First: CC(=O)N1c2ccccc2[C@](C#N)(c2ccccc2)[C@H]1c1cccc(OCCCCN2CCCC2)c1 (racemic) [compound 56, (2RS,3RS)-1-Acetyl-3-phenyl-2-(3-(4-(pyrrolidin-1-yl)butoxy)phenyl)indoline-3-carbonitrile]
Second: CC(=O)N1c2ccccc2[C@](C#N)(c2ccccc2)[C@H]1c1cccc(OCCCCCN2CCCC2)c1 (racemic) [compound 57, (2RS,3RS)-1-Acetyl-3-phenyl-2-(3-((5-(pyrrolidin-1-yl)pentyl)oxy)phenyl)indoline-3-carbonitrile]
The IC50 of the first is 1.6-fold higher: 2020 nM for the first, 1250 nM for the second.

Compared with `N#C[C@]1(c2ccccc2)c2ccccc2N(C(=O)c2ccccc2)[C@@H]1c1cccc(OCCCCCCCN2CCCC2)c1` (racemic) [compound 63, (2RS,3RS)-1-Benzoyl-3-phenyl-2-(3-((7-(pyrrolidin-1-yl)heptyl)oxy)phenyl)indoline-3-carbonitrile], `N#C[C@]1(c2ccccc2)c2ccccc2N(C(=O)c2ccco2)[C@@H]1c1cccc(OCCCCCCCN2CCCC2)c1` (racemic) [compound 64, (2RS,3RS)-1-(Furan-2-carbonyl)-3-phenyl-2-(3-((7-(pyrrolidin-1-yl)heptyl)oxy)phenyl)indoline-3-carbonitrile] is 2.3-fold lower in IC50: 2020 nM for the first, 883 nM for the second.

`N#C[C@]1(c2ccccc2)c2ccccc2N(C(=O)c2ccc(C(F)(F)F)cc2)[C@@H]1c1cccc(OCCCCCCCN2CCCC2)c1` (racemic) [compound 66, (2RS,3RS)-3-Phenyl-2-(3-((7-(pyrrolidin-1-yl)heptyl)oxy)phenyl)-1-(4-(trifluoromethyl)benzoyl)indoline-3-carbonitrile] and `CC(=O)N1c2ccccc2[C@](C#N)(c2ccccc2)[C@H]1c1cccc(OCCCCCCCN2CCCC2)c1` (racemic) [compound 59, (2RS,3RS)-1-Acetyl-3-phenyl-2-(3-((7-(pyrrolidin-1-yl)heptyl)oxy)phenyl)indoline-3-carbonitrile] are within 1.5-fold of each other in IC50: 1320 nM for the first, 893 nM for the second.

Compared with `CC(=O)N1c2ccccc2[C@](C#N)(c2ccccc2)[C@H]1c1cccc(OCCCCCCCN2CCOCC2)c1` (racemic) [compound 70, (2RS,3RS)-1-Acetyl-2-(3-((7-morpholinoheptyl)oxy)phenyl)-3-phenylindoline-3-carbonitrile], `CC(=O)N1c2ccccc2[C@](C#N)(c2ccccc2)[C@H]1c1cccc(OCCCCCCCN2CCCCC2)c1` (racemic) [compound 69, (2RS,3RS)-1-Acetyl-3-phenyl-2-(3-((7-(piperidin-1-yl)heptyl)oxy)phenyl)indoline-3-carbonitrile] is 3-fold lower in IC50: 3260 nM for the first, 1070 nM for the second.

`CC(C)CC(=O)N1c2ccccc2[C@](C#N)(c2ccccc2)[C@H]1c1cccc(OCCCCCCCN2CCCC2)c1` (racemic) [compound 65, (2RS,3RS)-1-(3-Methylbutanoyl)-3-phenyl-2-(3-((7-(pyrrolidin-1-yl)heptyl)oxy)phenyl)indoline-3-carbonitrile] and `CC(=O)N1c2ccccc2[C@](C#N)(c2ccccc2)[C@H]1c1cccc(OCCCCCCCCN2CCCC2)c1` (racemic) [compound 60, (2RS,3RS)-1-Acetyl-3-phenyl-2-(3-((8-(pyrrolidin-1-yl)octyl)oxy)phenyl)indoline-3-carbonitrile] are within 1.5-fold of each other in IC50: 1350 nM for the first, 1380 nM for the second.

`CC(=O)N1c2ccccc2[C@](C#N)(c2ccccc2)[C@H]1c1cncc(/C=C\CCCCCN2CCCC2)c1` (racemic) [compound 152, (2RS,3RS)-1-Acetyl-3-phenyl-2-(5-((Z)-7-(pyrrolidin-1-yl)hept-1-en-1-yl)pyridin-3-yl)indoline-3-carbonitrile] and `CC(=O)N1c2ccccc2[C@](C#N)(c2ccccc2)[C@H]1c1cccc(OCCCCCCN2CCCC2)c1` (racemic) [compound 58, (2RS,3RS)-1-Acetyl-3-phenyl-2-(3-((6-(pyrrolidin-1-yl)hexyl)oxy)phenyl)indoline-3-carbonitrile] are within 1.5-fold of each other in IC50: 838 nM for the first, 1030 nM for the second.

For `CC(=O)N1c2ccccc2[C@](C#N)(c2ccccc2)[C@H]1c1cccc(OCCCCCCCCCN2CCCC2)c1` (racemic) [compound 62, (2RS,3RS)-1-Acetyl-3-phenyl-2-(3-((9-(pyrrolidin-1-yl)nonyl)oxy)phenyl)indoline-3-carbonitrile], the IC50 was 1510 nM.
